pEC50, pIC50: −log10 of the molar value. Where a SMILES comes first, the peptide text is derived from it. [ ]: non-standard residue; d: D form. Aib = CC(C)(N)C(=O)O Some results are limits rather than exact numbers.

The source of these data is US9657079B2, “Truncated GLP-1 derivatives and their therapeutical use” (Novo Nordisk A/S, priority 2007, dated 2017).

Experiment [1] addresses T1, isolated N-terminal extracellular domain of the GLP-1R receptor (nGLP-1R) (Homo sapiens, UniProt P43220).
T1 construct: isolated N-terminal extracellular domain of the GLP-1R receptor (nGLP-1R); made in house
The experiment is described as follows: Displacement of 125I-Exendin-4(9-39) from nGLP-1R (SPA). It is filed as binding. Conditions: SPA beads, read-out: affinity to nGLP-1R (IC50). The method, then: The protein is then biotinylated and immobilized, preferably on streptavidin-coated SPA beads. The nGLP1R in a suitable buffer such as 0.1M NaHCO3 may be biotinylated using 75 μg BNHS (Sigma H1759) to 1 mg protein. The biotinylated nGLP1R is subsequently preferably dialyzed against PBS. […] The plates are incubated on a shaker, preferably at RT for 3 hours. The SPA particles may be spun down by centrifugation, e.g. for 10 min at 1500 rpm, and the plates are counted, e.g. in a TopCount-NXT (PerkinElmer).
The nGLP1R in 0.1M NaHCO3 was biotinylated using 75 μg BNHS (Sigma H1759) to 1 mg protein. The biotinylated nGLP1R was subsequently dialyzed against PBS. All reagents and derivatives were diluted in PBS with 0.05% v/v Tween 20. […] The plates were incubated on a shaker at RT for 3 hours. The SPA particles were spun down by centrifugation for 10 min at 1500 rpm and the plates were counted in a TopCount-NXT (PerkinElmer).
(Displacement assays read how much labelled ligand stays bound in the presence of the test substance.)

Experiment [2] deals with T2, human GLP-1 receptor (Homo sapiens, UniProt P43220).
T2 construct: expressed in transfected cells; purified plasma membranes
T2 sequence (P43220 24-463): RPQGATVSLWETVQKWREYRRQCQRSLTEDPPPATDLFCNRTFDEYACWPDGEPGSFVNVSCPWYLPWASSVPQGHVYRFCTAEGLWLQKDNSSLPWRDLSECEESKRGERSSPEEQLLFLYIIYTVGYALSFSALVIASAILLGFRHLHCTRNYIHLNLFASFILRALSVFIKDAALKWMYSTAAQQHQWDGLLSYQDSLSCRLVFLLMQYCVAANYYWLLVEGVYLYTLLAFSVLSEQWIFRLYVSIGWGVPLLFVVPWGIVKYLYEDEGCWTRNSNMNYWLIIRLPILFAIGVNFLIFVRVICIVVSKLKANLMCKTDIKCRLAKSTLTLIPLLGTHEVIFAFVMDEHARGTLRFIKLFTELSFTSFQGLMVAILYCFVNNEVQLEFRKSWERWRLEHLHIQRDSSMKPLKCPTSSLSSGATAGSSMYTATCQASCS
In words: Stimulation of cAMP formation, plasma membranes from BHK467-12A (tk-ts13) cells, AlphaScreen cAMP kit. The format is biochemical. As to conditions: membranes of BHK467-12A (tk-ts13) expressing the human GLP-1 receptor; read-out: potency (EC50), cAMP formation. The method, then: In particular embodiments (i) baby hamster kidney (BHK) cells expressing the cloned human GLP-1 receptor are used, preferably BHK-467-12A, more preferably BHK-467-12A (tk-ts13); (ii) the cells are grown in DMEM media with the addition of 100 IU/mL penicillin, 100 μg/mL streptomycin, 5% fetal calf serum and 0.5 mg/mL Geneticin G-418 (Life Technologies), preferably at 5% CO2; (iii) the cells, preferably at approximately 80% confluence, are washed twice in phosphate buffered saline; (iv) the cells are harvested with an aqueous solution of tetrasodium salt of ethylenediaminetetraacetic acid, such as Versene; (v) plasma membranes are prepared from the cells by homogenisation, preferably in buffer 1; the homogenate is centrifuged, e.g. at 48,000×g for 15 min at 4° C.; and/or (vii) the pellet is suspended by homogenization in buffer 2. Steps (vi) and (vii) are preferably repeated, e.g. one or two times more.
The functional receptor assay may be carried out as described in Example 21 by measuring cyclic AMP (cAMP) as a response to stimulation by the insulinotropic agent. cAMP formed is preferably quantified by the AlphaScreen™ cAMP Kit (Perkin Elmer Life Sciences). Incubations may be carried out in half-area 96-well microtiter plates in a total volume of 50 μL buffer 3 (50 mM Tris-HCI, 5 mM HEPES, 10 mM MgCl2, pH 7.4) and with the following additions: 1 mM ATP, 1 μM GTP, 0.5 mM 3-isobutyl-1-methylxanthine (IBMX), 0.01% Tween-20, 0.1% BSA, 6 μg membrane preparation, 15 μg/mL acceptor beads, 20 μg/mL donor beads preincubated with 6 nM biotinyl-cAMP. Analogues or derivatives to be tested for agonist activity are preferably dissolved and diluted in buffer 3. GTP is freshly prepared for each experiment. […]
For comparison, the potency of truncated natural, human GLP-1(7-33) was also determined.
Purified plasma membranes from a stable transfected cell line, BHK467-12A (tk-ts13), expressing the human GLP-1 receptor was stimulated with GLP-1 compound in question, and the potency of cAMP production was measured using the AlphaScreen™ cAMP Assay Kit from Perkin Elmer Life Sciences. […]
Cells at approximate 80% confluence are washed 2× with PBS (Phosphate Buffered Saline) and harvested with Versene (aqueous solution of the tetrasodium salt of ethylenediaminetetraacetic acid), centrifuged 5 min at 1000 rpm and the supernatant removed. […] Suspension in Buffer 2, homogenization and centrifugation is repeated once and the membranes are resuspended in Buffer 2 and ready for further analysis or stored at −80° C.
The functional receptor assay was carried out by measuring the peptide induced cAMP production by The AlphaScreen Technology. […] Formed cAMP is counted and measured at a Alpha Fusion Microplate Analyzer. […]

The target in experiment [3] is T2, human GLP-1 receptor. In words: Displacement of 125I-GLP-1 from the GLP-1 receptor, BHK tk-ts13 membranes (SPA). Conditions: displacement of 125I-GLP-1, BHK tk-ts13 membranes, read-out: IC50, binding affinity to the GLP-1 receptor. The source says:
In a second aspect, the GLP-1 analogue or derivative thereof (“GLP-1 compound”) has a high affinity to the GLP-1 receptor. The affinity to the GLP-1 receptor may be determined as described in Example 23, i.e. by way of displacement of ^125I-GLP-1 from the receptor. BHK cells may be used for membrane preparation, preferably strain tk-ts13. The membranes may be purified, preferably as described in Example 23, A preferred binding assay method is the SPA assay of Example 23.
The binding affinity of a number of GLP-1 compounds of the invention (compounds of Examples 1-7, and 9-18) to the human GLP-1 receptor was measured by way of their ability to displace ^125I-GLP-1 from the receptor.
Species (in vitro): Hamster
Biological End Point: Receptor Binding
The cells (approx. 80% confluence) were washed twice in PBS and harvested (PBS+EDTA or Versene), following which they were separated by centrifugation at 1000 rpm for 5 min. The cells/cell pellet must be kept on ice to the extent possible in the subsequent steps. The cell pellet was homogenised with Ultrathurrax for 20-30 seconds in a suitable amount of Buffer 1 (depending on the amount of cells, but e.g. 10 ml). The homogenate as centrifuged at 20000 rpm for 15 minutes. The pellet was resuspended (homogenised) in 10 ml Buffer 2 and re-centrifuged. This step was repeated once more. The resulting pellet was resuspended in Buffer 2, and the protein concentration was determined. The membranes were stored at −80° C.
Buffer 1: 20 mM Na-HEPES+10 mM EDTA, pH 7.4
Buffer 2: 20 mM Na-HEPES+0.1 mM EDTA, pH 7.4
Test compounds/peptides, membranes, SPA-particles and [^125I] are diluted in assay buffer. 25 ul (micro liter) of test compounds/peptides are added to Optiplate. Buffer is added (50 ul). Add 5-10 ug protein/sample (50 ul) corresponding to 0.1-0.2 mg protein/ml (to be preferably optimised for each membrane preparation). Add SPA-particles (Wheatgerm agglutinin SPA beads) RPNQ 0001) 0.5 mg/well (50 ul). Start the incubation with [I^125]-GLP-1 (final concentration 0.05 nM corresponding to 49.880 DPM, 25 ul). The plates are sealed with PlateSealer. Incubate for 120 minutes at 30° C. while shaking. The plates are centrifuged (1500 rpm, 10 min) and counted in Topcounter.
Assay buffer: 50 mM HEPES

T1 sequence (P43220 24-139 limits assumed): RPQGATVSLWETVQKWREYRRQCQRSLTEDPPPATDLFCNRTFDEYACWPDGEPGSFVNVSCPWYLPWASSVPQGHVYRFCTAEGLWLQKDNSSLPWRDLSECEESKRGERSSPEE

`CC[C@H](C)[C@H](NC(=O)[C@H](Cc1ccccc1)NC(=O)[C@H](CCC(=O)O)NC(=O)[C@H](CCCNC(=N)N)NC(=O)[C@@H](NC(=O)[C@H](C)NC(=O)[C@H](CCC(N)=O)NC(=O)[C@H](CCC(=O)O)NC(=O)[C@H](CCC(=O)O)NC(=O)[C@H](CCCCN)NC(=O)[C@H](Cc1ccc(O)cc1)NC(=O)[C@H](CO)NC(=O)[C@H](CO)NC(=O)[C@@H](NC(=O)[C@H](CC(=O)O)NC(=O)[C@H](CO)NC(=O)[C@@H](NC(=O)[C@H](Cc1ccccc1)NC(=O)[C@@H](NC(=O)CNC(=O)[C@H](CCC(=O)O)NC(=O)C(C)(C)NC(=O)[C@@H](N)Cc1c[nH]cn1)[C@@H](C)O)[C@@H](C)O)C(C)C)C(C)C)C(=O)N[C@@H](CCC(=O)O)C(=O)N[C@@H](Cc1c[nH]c2ccccc12)C(=O)N[C@@H](CC(C)C)C(=O)N[C@H](C(N)=O)C(C)C` [Example 5, [Aib8,Lys20,Glu22,Val25,Arg26,Glu30] GLP-1 (7-33) Amide] (H-H[Aib]EGTFTSDVSSYKEEQAVREFIEWLV-NH2): the pIC50 (usually the negative decadic logarithm of the IC50, by convention in mol/L) in experiment [1] is 5.82 to 6.70; in experiment [3], 7.36 to 9.62. Moreover, the negative-log EC50 (pEC50) (in general, the EC50 on a negative log10 scale, so that one unit is a factor of ten) in experiment [2] was over 9.52.
As to `CC[C@H](C)[C@H](NC(=O)[C@H](Cc1ccccc1)NC(=O)[C@H](CCC(=O)O)NC(=O)[C@H](CCCNC(=N)N)NC(=O)[C@H](C)NC(=O)[C@H](C)NC(=O)[C@H](CCC(N)=O)NC(=O)[C@H](CCC(=O)O)NC(=O)[C@H](CCC(=O)O)NC(=O)[C@H](CC(C)C)NC(=O)[C@H](Cc1ccc(O)cc1)NC(=O)[C@H](CO)NC(=O)[C@H](CO)NC(=O)[C@@H](NC(=O)[C@H](CC(=O)O)NC(=O)[C@H](CO)NC(=O)[C@@H](NC(=O)[C@H](Cc1ccccc1)NC(=O)[C@@H](NC(=O)CNC(=O)[C@H](CCC(=O)O)NC(=O)[C@H](C)NC(=O)[C@@H](N)Cc1c[nH]cn1)[C@@H](C)O)[C@@H](C)O)C(C)C)C(=O)N[C@@H](C)C(=O)N[C@@H](Cc1c[nH]c2ccccc12)C(=O)N[C@@H](CC(C)C)C(=O)N[C@H](C(N)=O)C(C)C` [Example 1, [Glu22,Arg26]GLP-1 (7-33) Amide] (H-HAEGTFTSDVSSYLEEQAAREFIAWLV-NH2), the negative logarithm of the IC50 (pIC50) in experiment [1] was 5.82 to 6.70; in experiment [3] it was 7.36 to 9.62. The negative logarithm of the EC50 (pEC50) in experiment [2] is over 9.52.
For `CC[C@H](C)[C@H](NC(=O)[C@H](Cc1ccccc1)NC(=O)[C@H](CCC(=O)O)NC(=O)[C@H](CCCNC(=N)N)NC(=O)[C@@H](NC(=O)[C@H](C)NC(=O)[C@H](CCC(N)=O)NC(=O)[C@H](CCC(=O)O)NC(=O)[C@H](CCC(=O)O)NC(=O)[C@H](CC(C)C)NC(=O)[C@H](Cc1ccc(O)cc1)NC(=O)[C@H](CO)NC(=O)[C@H](CO)NC(=O)[C@@H](NC(=O)[C@H](CC(=O)O)NC(=O)[C@H](CO)NC(=O)[C@@H](NC(=O)[C@H](Cc1ccccc1)NC(=O)[C@@H](NC(=O)CNC(=O)[C@H](CCC(=O)O)NC(=O)[C@H](C)NC(=O)[C@@H](N)Cc1c[nH]cn1)[C@@H](C)O)[C@@H](C)O)C(C)C)C(C)C)C(=O)N[C@@H](C)C(=O)N[C@@H](Cc1c[nH]c2ccccc12)C(=O)N[C@@H](CC(C)C)C(=O)N[C@H](C(N)=O)C(C)C` [Example 4, [Glu22, Val25, Arg26] GLP-1 (7-33)amide] (H-HAEGTFTSDVSSYLEEQAVREFIAWLV-NH2) the same measures were 5.82 to 6.70, 7.36 to 9.62 and over 9.52.
In the same order, the values of `CC[C@H](C)[C@H](NC(=O)[C@H](Cc1ccccc1)NC(=O)[C@H](CCC(=O)O)NC(=O)[C@H](CCCNC(=N)N)NC(=O)[C@H](C)NC(=O)[C@H](C)NC(=O)[C@H](CCC(N)=O)NC(=O)[C@H](CCC(=O)O)NC(=O)[C@H](CCC(=O)O)NC(=O)[C@H](CC(C)C)NC(=O)[C@H](Cc1ccc(O)cc1)NC(=O)[C@H](CO)NC(=O)[C@H](CO)NC(=O)[C@@H](NC(=O)[C@H](CC(=O)O)NC(=O)[C@H](CO)NC(=O)[C@@H](NC(=O)[C@H](Cc1ccccc1)NC(=O)[C@@H](NC(=O)CNC(=O)[C@H](CCC(=O)O)NC(=O)[C@H](C)NC(=O)[C@@H](N)Cc1c[nH]cn1)[C@@H](C)O)[C@@H](C)O)C(C)C)C(=O)N[C@@H](C)C(=O)N[C@@H](Cc1c[nH]c2ccccc12)C(=O)N[C@@H](CC(C)C)C(=O)N[C@H](C(=O)O)C(C)C` [Example 7, [Glu22, Arg26]GLP-1(7-33)peptide] (H-HAEGTFTSDVSSYLEEQAAREFIAWLV-OH) are 5.82 to 6.70, 7.36 to 9.62 and over 9.52.
